# According to PMC12396409, “Screening and hit evaluation of a microbial metabolite library against the pathogenic Plasmodium falciparum and Toxoplasma gondii parasites” (International Journal for Parasitology: Drugs and Drug …, 2025):
# Like-named read-outs stand apart in the source and are kept apart here. *1 amine or outer side, *2 acyl side, *3 side chain or, on linkers, in order; H or OH if unused. Where a SMILES comes first, the peptide text is derived from it. Bridges are numbered along the chain shown (N, C = ends). [ ]: non-standard residue; d: D form. The star is where a group is joined. X1 = O=C1C[C@@H](C(=O)[*:2])N([*:1])C[C@H]1CS[C@@H]1CN2CCC1CC2; NMePhe(4-NMe2) = CN[C@@H](Cc1ccc(N(C)C)cc1)C(=O)O; Picolinoyl(3-OH) = O=C(c1ncccc1O)*; Phg = N[C@H](C(=O)O)c1ccccc1; dAbu = CC[C@@H](N)C(=O)O
# How the values were obtained:
# [1] = system: P. falciparum 3D7 parasites; assay: P. falciparum growth inhibition assay, 2-cycle (120 h treatment), delayed-death screen and dose-response; type: cell-based, Plasmodium falciparum
# [2] = system: P. falciparum 3D7 parasites; assay: P. falciparum growth inhibition assay, 1-cycle (72 h treatment), SYBR DNA staining (library screen at 2 μg/mL and dose-response); type: cell-based, Plasmodium falciparum
# [3] = system: T. gondii RH strain (RH-Tub-eYFP) tachyzoites; assay: microbe, parasite or virus in culture; type: cell-based, Toxoplasma gondii; conditions: T. gondii, 72 h, parasite screen 2 μg/mL, % growth; for percent parasite growth at 2 µg/mL: Toxoplasma gondii
# [4] = P. falciparum, 120 h, parasite screen 2 μg/mL, % growth, replicate 1
# [5] = P. falciparum, 120 h, parasite screen 2 μg/mL, % growth, replicate 2
# [6] = P. falciparum, 72 h, parasite screen 2 μg/mL, % growth, replicate 1
# [7] = P. falciparum, 72 h, parasite screen 2 μg/mL, % growth, replicate 2
# [8] = Plasmodium falciparum, 3D7, P. falciparum, 120 h, parasite screen 2 μg/mL, % growth, replicate 1, read-out: Pf_120h_%Growth_Rep1
# [9] = Plasmodium falciparum, 3D7, P. falciparum, 120 h, parasite screen 2 μg/mL, % growth, replicate 2, read-out: Pf_120h_%Growth_Rep2
# [10] = Plasmodium falciparum, 3D7, P. falciparum, 72 h, parasite screen 2 μg/mL, % growth, replicate 1, read-out: Pf_72h_%Growth_Rep1
# [11] = Plasmodium falciparum, 3D7, P. falciparum, 72 h, parasite screen 2 μg/mL, % growth, replicate 2, read-out: Pf_72h_%Growth_Rep2
# [12] = replicate 1, read-out: Tg_72h_%Growth_Rep1
# [13] = replicate 2, read-out: Tg_72h_%Growth_Rep2
# [14] = Plasmodium falciparum, 3D7, 120 h, P. falciparum, 120 h, parasite screen 2 μg/mL, % growth, replicate 1, read-out: Pf_120h_%Growth_Rep1
# [15] = Plasmodium falciparum, 3D7, 120 h, P. falciparum, 120 h, parasite screen 2 μg/mL, % growth, replicate 2, read-out: Pf_120h_%Growth_Rep2
# [16] = Plasmodium falciparum, 3D7, 72 h, P. falciparum, 72 h, parasite screen 2 μg/mL, % growth, replicate 1, read-out: Pf_72h_%Growth_Rep1
# [17] = Plasmodium falciparum, 3D7, 72 h, P. falciparum, 72 h, parasite screen 2 μg/mL, % growth, replicate 2, read-out: Pf_72h_%Growth_Rep2
Compound,"Pf_120h_%Growth_Rep1 [1, 4]","Pf_120h_%Growth_Rep2 [1, 5]","Pf_72h_%Growth_Rep1 [2, 6]","Pf_72h_%Growth_Rep2 [2, 7]",Tg_72h_%Growth_Rep1 ([3]; replicate 1),Tg_72h_%Growth_Rep2 ([3]; replicate 2),"percent parasite growth at 2 µg/mL [3, 12]","percent parasite growth at 2 µg/mL [3, 13]",further results
CS[C@H]1SC[C@H]2C(=O)N(C)[C@@H](C(C)C)C(=O)OC[C@@H](NC(=O)c3cnc4ccccc4n3)C(=O)N[C@@H](C)C(=O)N(C)[C@@H]1C(=O)N(C)[C@@H](C(C)C)C(=O)OC[C@@H](NC(=O)c1cnc3ccccc3n1)C(=O)N[C@@H](C)C(=O)N2C [Quinomycin A],15.40%,-11.60%,8.36%,-0.61%,-0.75%,-0.09%,,,
CC[C@H]1NC(=O)[C@@H](NC(=O)c2ncccc2O)[C@@H](C)OC(=O)[C@H](c2ccccc2)NC(=O)[C@@H]2CC(=O)[C@H](CS[C@@H]3CN4CCC3CC4)CN2C(=O)[C@H](Cc2ccc(N(C)C)cc2)N(C)C(=O)[C@@H]2CCCN2C1=O.CS(=O)(=O)O [Quinupristin mesylate] ({Picolinoyl(3-OH)}-T[dAbu]P[NMePhe(4-NMe2)][X1][Phg]; ester 1-C),64.23%,110.37%,73.76%,97.23%,87.31%,81.75%,,,
CCCCCCCCCCCCCCCC(=O)C1=C(O)C(CO)OC1=O (stereo not drawn) [RK-682],73.75%,72.22%,82.69%,35.30%,107.18%,84.15%,,,
C[C@@H]1C[C@H]2O[C@@H]2/C=C\C=C\C(=O)Cc2c(Cl)c(O)cc(O)c2C(=O)O1 [Radicicol],,,,,,,52.9%,57.6%,"activity at 2 µg/mL [1, 8]: 64.2%; activity at 2 µg/mL [1, 9]: 55%; activity at 2 µg/mL [2, 10]: 57.5%; activity at 2 µg/mL [2, 11]: 42.5%"
C/C=C/c1cc2c(c(=O)o1)[C@H](O)[C@@H](O)[C@H](C)O2 [Radicinol],82.58%,123.93%,83.85%,102.30%,118.35%,83.89%,,,
CO[C@H]1C[C@@H]2CC[C@@H](C)[C@@](O)(O2)C(=O)C(=O)N2CCCC[C@H]2C(=O)O[C@H]([C@H](C)C[C@@H]2CC[C@@H](O)[C@H](OC)C2)CC(=O)[C@H](C)/C=C(\C)[C@@H](O)[C@@H](OC)C(=O)[C@H](C)C[C@H](C)/C=C/C=C/C=C/1C [Rapamycin],,,,,,,132%,75.7%,"activity at 2 µg/mL [1, 14]: 104%; activity at 2 µg/mL [1, 15]: 102%; activity at 2 µg/mL [2, 16]: 86.2%; activity at 2 µg/mL [2, 17]: 116%"
CO[C@H]1[C@H](O)[C@@H](O)[C@H](n2c3c(Cl)cccc3c3c4c(c5c6cccc(Cl)c6[nH]c5c32)C(=O)NC4=O)O[C@@H]1CO [Rebeccamycin],,,,,,,35.4%,70.9%,"3) Fold change (72 h/120 h) ([1]; P. falciparum, growth at 72 h / growth at 120 h, 2 μg/mL): 1.2; activity at 2 µg/mL ([1]; Plasmodium falciparum, 3D7; P. falciparum, 2 μg/mL, 120 h; read-out: 2) Growth (%) at 120 h): 18.4%; activity at 2 µg/mL [1, 8]: 22.3%; activity at 2 µg/mL [1, 9]: 14.5%; activity at 2 µg/mL ([2]; Plasmodium falciparum, 3D7; P. falciparum, 2 μg/mL, 72 h; read-out: 1) Growth (%) at 72 h): 21.6%; activity at 2 µg/mL [2, 10]: 22.6%; activity at 2 µg/mL [2, 11]: 20.5%"
COC(=O)C1=CO[C@@H](C)[C@@H]2CN3CCc4c([nH]c5cc(OC)c(OC)cc45)[C@H]3C[C@H]12 [Reserpiline],31.58%,13.59%,29.90%,27.58%,145.39%,95.76%,,,
Cc1cc(O)c2c3c1C(=O)C=C1C(C)(C)C(=O)c4c(O)cc(O)c(c4C13O)C2=O (stereo not drawn) [Resistoflavine],116.77%,93.07%,97.04%,109.63%,250.44%,135.44%,,,
Cc1cc(O)c2c3c4c(cc(O)c13)C(C)(C)C(=O)c1c(O)cc(O)c(c1-4)C2=O [Resistomycin],,,,,,,221%,125%,"activity at 2 µg/mL [1, 14]: 78.2%; activity at 2 µg/mL [1, 15]: 130%; activity at 2 µg/mL [2, 16]: 82%; activity at 2 µg/mL [2, 17]: 102%"
COc1c(O)cc2cc(C)oc(=O)c2c1O [Reticulol],-0.78%,4.83%,1.99%,0.81%,97.11%,97.69%,,,
CCCC[C@@]1(OC(=O)CCC(=O)O)CC[C@]2(CC[C@H](C)[C@@H](C/C=C(C)/C=C/[C@H](O)[C@@H](C)/C=C/C(=O)O)O2)O[C@H]1/C=C/C(C)=C/C(=O)O [Reveromycin A],,,,,,,119%,88.8%,"activity at 2 µg/mL [1, 8]: 69.8%; activity at 2 µg/mL [1, 9]: 88.5%; activity at 2 µg/mL [2, 10]: 75.9%; activity at 2 µg/mL [2, 11]: 65.4%"
CCCC[C@]1([C@H](/C=C/C(C)=C/C(=O)O)OC(=O)CCC(=O)O)CC[C@]2(CC[C@H](C)[C@@H](C/C=C(C)/C=C/[C@H](O)[C@@H](C)/C=C/C(=O)O)O2)O1 [Reveromycin B],,,,,,,139%,87.7%,"activity at 2 µg/mL [1, 14]: 78.2%; activity at 2 µg/mL [1, 15]: 133%; activity at 2 µg/mL [2, 16]: 89%; activity at 2 µg/mL [2, 17]: 114%"
CC(/C=C/[C@H](O)[C@@H](C)/C=C/C(=O)O)=C\C[C@H]1O[C@]2(CC[C@@H]1C)CC[C@@](CCC(C)C)(OC(=O)CCC(=O)O)[C@H](/C=C/C(C)=C/C(=O)O)O2 [Reveromycin C],71.01%,60.10%,86.43%,70.33%,140.65%,73.99%,,,
CCCCC[C@@]1(OC(=O)CCC(=O)O)CC[C@]2(CC[C@H](C)[C@@H](C/C=C(C)/C=C/[C@H](O)[C@@H](C)/C=C/C(=O)O)O2)O[C@H]1/C=C/C(C)=C/C(=O)O [Reveromycin D],51.02%,15.46%,62.63%,21.41%,109.29%,94.72%,,,
CO[C@H]1C[C@@H]2CC[C@@H](C)[C@@](O)(O2)C(=O)C(=O)N2CCCC[C@H]2C(=O)O[C@H]([C@H](C)C[C@@H]2CC[C@@H](OP(C)(C)=O)[C@H](OC)C2)CC(=O)[C@H](C)/C=C(\C)[C@@H](O)[C@@H](OC)C(=O)[C@H](C)C[C@H](C)/C=C/C=C/C=C/1C [Ridaforolimus],,,,,,,128%,84.7%,"activity at 2 µg/mL [1, 14]: 75.1%; activity at 2 µg/mL [1, 15]: 55.3%; activity at 2 µg/mL [2, 16]: 68.5%; activity at 2 µg/mL [2, 17]: 69.8%"
